Series [1] is described as follows: Stability of PTH(1-34) under UV exposure (ELISA). In kind it is physicochemical. The following applies: 10 minutes of UV exposure. The method, then: The hydrogel was fabricated by the photo-cross linking method. Briefly, 20 mg of methacrylated-hyaluronic acid (MeHA) was dissolved in 650 μL of stock solution (0.9% NaCl/4 mM HCl/0.1% BSA solution) and 100 μL of 0.07% (w/v) 12959 (Ciba specialty chemicals, Taiwan) was added to the solution. After complete dissolution, 250 μL of PTH(1-34) stock solution (10^−5 M) was added to the polymer solution and mixed completely. The mixture was transferred into glass syringe and exposed under UV light for 10 minutes. The resulting PTH/CLMH gel was washed with distilled water and then lyophilized. The morphology of the gel was examined using scanning electron microscopy (SEM) after gold coating of the samples on a stub.
The encapsulation and release kinetics are as follows: 200 μL of PTH(1-34)-loaded CLMH hydrogel (PTH/CLMH gel) suspended in 1 mL of 0.9% NaCl was crushed completely and collected the supernatant. Concentration of PTH(1-34) on the supernatant was measured using a commercially available PTH(1-34) ELISA kit following the manufacturer's instructions.
A general note: In an ELISA, binding on a coated surface is turned into a signal by an enzyme label.

For series [2] the following is noted: pulmonary route, cited from earlier work.
Another series deals with papain-induced OA. The experiment in a line: Papain-induced OA in rat knees, histology of articular cartilage (GAG, type II collagen). In kind it is in vivo, Rats. The following applies: OA group; intra-articular; PTH(1-34) 10 nM every 3 days, hydrogels every 10 days. The method, then: Rats were divided into the following 2 groups: OA group (OA induction with or without PTH(1-34) treatment) (n=5), non-OA group (n=5) injected with vehicle without PTH(1-34) treatment and OA induction. The right knees were the study joints. OA was induced in the right knees of rats in the OA groups with intra-articular injections of 20 ul of 4% papain solution and 20 ul of 0.03M cysteine. The injections were given with a 23-gauge needle via the patellar tendon on days 1, 4, and 7 of the example. In the OA group, after OA induction, the right knees were injected intra-articularly with 40 ul of 10 nM PTH(1-34) every 3 days or PTH/CLMH or CLMH every 10 days until rats were sacrificed. In the non-OA group, the same treatments were performed but without OA induction. Rats from each group were sacrificed by CO2 inhalation. Histologic analysis: After rats were sacrificed, the knees were harvested, and the tibia plateaus with articular cartilage were collected and fixed with 10% neutral buffered formalin prior to histologic preparation. The samples were then decalcified in 0.05M EDTA. The decalcified tibia articular samples were paraffin embedded, and […] microsections in the coronary plane were prepared. GAG was stained with Safranin O-fast green (1% Safranin 0 counterstained with 0.75% hematoxylin and then 1% fast green; Sigma) (dark color). […]

Series [3] deals with MC3T3-E1 (osteoblastic cells). Put plainly: Bioactivity of released PTH(1-34): cAMP contents in cells. In kind it is cell-based. The following applies: PTH(1-34) released from PTH/CLMH hydrogel at 2, 3, 4, 9, 10 and 11 days; 20 mins incubation. The method, then:
The activity of controlled released PTH(1-34) was determined by measuring cAMP contents in cells treated with released PTH(1-34). For these examples, the MC3T3-E1 (osteoblastic cells) was cultured in phenol red-free α-MEM supplemented with 10% fetal bovine serum and […] ascorbic acid. The Cells were seeded into 24-well plates at a density of 50,000 cells/well. 0.25 mM isobutylmethylxanthine was used to inhibit cAMP degradation and incubated with released PTH(1-34) for 20 mins. The cells were lysed directly in the medium by adding 0.1N HCl. Intracellular cAMP was measured using a commercially available immunoassay kit (cayman) following the manufacturer's instructions.
Statistical analysis: Three independent cultures for biochemical analysis were tested. Each example was repeated at least three times, and data (expressed as mean±SEM) from a representative example are shown. Statistical significance was evaluated by one-way analysis of variance (ANOVA), and multiple comparisons were performed by Student's t-test. A p<0.05 was considered significant.

Where two headings read alike, the source gives them in different places.

As a reminder, the bioavailability is the share of a dose that reaches the circulation, judged against a reference dose that is usually intravenous.

For `CC[C@H](C)[C@H](NC(=O)[C@H](CCC(=O)O)NC(=O)[C@H](CO)NC(=O)[C@@H](NC(=O)[C@@H](N)CO)C(C)C)C(=O)N[C@@H](CCC(N)=O)C(=O)N[C@@H](CC(C)C)C(=O)N[C@@H](CCSC)C(=O)N[C@@H](Cc1cnc[nH]1)C(=O)N[C@@H](CC(N)=O)C(=O)N[C@@H](CC(C)C)C(=O)NCC(=O)N[C@@H](CCCCN)C(=O)N[C@@H](Cc1cnc[nH]1)C(=O)N[C@@H](CC(C)C)C(=O)N[C@@H](CC(N)=O)C(=O)N[C@@H](CO)C(=O)N[C@@H](CCSC)C(=O)N[C@@H](CCC(=O)O)C(=O)N[C@@H](CCCN=C(N)N)C(=O)N[C@H](C(=O)N[C@@H](CCC(=O)O)C(=O)N[C@@H](Cc1c[nH]c2ccccc12)C(=O)N[C@@H](CC(C)C)C(=O)N[C@@H](CCCN=C(N)N)C(=O)N[C@@H](CCCCN)C(=O)N[C@@H](CCCCN)C(=O)N[C@@H](CC(C)C)C(=O)N[C@@H](CCC(N)=O)C(=O)N[C@@H](CC(=O)O)C(=O)N[C@H](C(=O)N[C@@H](Cc1cnc[nH]1)C(=O)N[C@@H](CC(N)=O)C(=O)N[C@@H](Cc1ccccc1)C(=O)O)C(C)C)C(C)C` [PTH(1-34), teriparatide], the “stability of PTH(1-34) under UV exposure” value in series [1] was “no significant adverse effect”. Moreover, the bioavailability is on record as 34% in series [2] (inhalation of dry powders) and 40% in series [2] (intratracheal instillation). The “level of GAG in OA articular cartilage” value with papain-induced OA is “could reverse papain-induced OA changes by increasing GAG level”. The “expression of cAMP” value in series [3] was “increased expression of cAMP”.
